According to patent US20260217662A1, “PROCESSES FOR PREPARING TRIAZOLE GLYCOLATE OXIDASE INHIBITORS” (CANTERO THERAPEUTICS, INC., priority 2020, published 2026):

Target: T1, human glycolate oxidase (hGO) (Homo sapiens, UniProt Q9UJM8)
T1 construct: His-tag (6 histidines) (N); made in house; host or cells: E. coli BL21 (DE3)
T1 sequence (Q9UJM8 1-370): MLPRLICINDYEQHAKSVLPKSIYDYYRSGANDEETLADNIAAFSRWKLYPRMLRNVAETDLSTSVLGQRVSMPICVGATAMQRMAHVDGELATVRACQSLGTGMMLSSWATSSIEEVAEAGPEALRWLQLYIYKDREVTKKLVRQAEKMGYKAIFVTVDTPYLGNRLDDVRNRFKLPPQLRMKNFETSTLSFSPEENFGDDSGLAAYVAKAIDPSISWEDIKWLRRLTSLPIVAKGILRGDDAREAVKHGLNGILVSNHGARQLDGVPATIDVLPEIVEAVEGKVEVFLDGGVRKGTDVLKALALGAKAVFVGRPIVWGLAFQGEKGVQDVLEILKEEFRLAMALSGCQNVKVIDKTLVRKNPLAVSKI
Test: In vitro inhibition of human glycolate oxidase (enzymatic assay, coupled HRP/Trinder reaction)
Format: biochemical
Conditions: recombinant hGO, 40 mM glycolic acid, pH 7, activity at 1 minute, read at 515 nm
From the text: The catalytic reactions used for assaying glycolate oxidase activity in the presence of compounds according to the present disclosure are outlined in FIG. 9. Glycolate oxidase (GO)-catalyzed conversion of glycolate to glyoxylate (top reaction), with the concomitant reduction of the cofactor flavin mononucleotide (FMN), uses molecular oxygen (O2) for recovering its oxidative state, releasing hydrogen peroxide (H2O2). The Trinder reaction (bottom reaction), in which horseradish peroxidase (HRP) uses hydrogen peroxide, 4-aminoantipyrine and a phenol derivative (sulphonated DCIP) to generate a quinoneimine dye that is spectrophotometrically measured.
Human glycolate oxidase (hGO) expression: BL21 (DE3) E. coli transformed with recombinant pET-15b expression vector with the N-terminal His-tag human Hao1 cDNA was grown in LB medium in the presence of 0.1 mg/ml ampicillin. […] Protein were quantified by the bicinchoninic acid (BCA) assay.
Enzymatic assays: Enzymatic activity of hGO was determined in the presence of glycolate as substrate (40 mM glycolic acid) and phosphate buffer (50 mM KPO4, 0.1 mM EDTA, pH 7). The production of glyoxylate was indirectly measured by the quantification of hydrogen peroxide formed during the first oxidation reaction. […] Enzymatic activity was calculated at 1 minute after initiation of the Trinder reaction.

| SMILES | IC50 |
| --- | --- |
| O=C(O)c1nn[nH]c1Oc1ccc(-c2ccc(C3CCC(F)(F)C3)cc2)cc1 (centres unmarked) [Ib-1, 5-((4′-(3,3-difluorocyclopentyl)-[1,1′-biphenyl]-4-yl)oxy)-1H-1,2,3-triazole-4-carboxylic acid] | < 100 nM |
| O=C(O)c1nn[nH]c1Oc1ccc(-c2ccc(C3CCC(F)(F)CC3)cc2)cc1 [Ic-1, 5-((4′-(4,4-difluorocyclohexyl)-[1,1′-biphenyl]-4-yl)oxy)-1H-1,2,3-triazole-4-carboxylic acid] | < 100 nM |
